Columns and labels:
[1] = in man; cited from earlier work
[2] = hypertensive patients; cited from earlier work
neointimal formation = settings: cited from earlier work

## CCCC[C@@H](NC(=O)[C@@H](Cc1cn(C(=O)OC)c2ccccc12)NC(=O)[C@H](CC(C)(C)C)NC(=O)N1[C@H](C)CCC[C@@H]1C)C(=O)O [BQ-788]
[1]
  peripheral resistance: increase peripheral resistance

## COc1ccccc1Oc1c(NS(=O)(=O)c2ccc(C(C)(C)C)cc2)nc(-c2ncccn2)nc1OCCO [Bosentan]
[2]
  blood pressure: decreased blood pressure

## COc1ccccc1Oc1c(OC)nn(C)c1NS(=O)(=O)c1ccc(C(C)(C)C)cc1 [Example 107, 4-(tert-Butyl)-N-[3-methoxy-4-(2-methoxyphenoxy)-1-methyl-1H-pyrazol-5-yl]benzenesulfonamide]
other
  melting point: 187.6 °C

## CCCOc1ccc2c(c1)[C@@H](c1ccc(OC)cc1OCC(=O)O)[C@H](C(=O)O)[C@H]2c1ccc2c(c1)OCO2 [SB-209670]
Neointimal formation
  reduction in neointimal formation relative to control animals: 50%
